Reference: ChEMBL document CHEMBL1201862, “PubChem BioAssay data set” (2004)
Active and inactive are the calls of the source.

Columns and labels:
SUMO-activating enzyme [1] = molecular target: T1, SUMO-activating enzyme (Homo sapiens, UniProt Q9UBT2); assay: blockers of UBC9-mediated SUMO conjugation – biochemical, AlphaScreen, SUMOylation inhibitor project, confirmation (AID 2018); format: functional
SUMO-activating enzyme [2] = molecular target: T1, SUMO-activating enzyme; assay: blockers of SAE1/SAE2–UBC9 SUMO transfer – biochemical, HTRF, uHTS, primary screen (AID 2006); format: protein-complex assay
[3] = molecular target: Induced myeloid leukemia cell differentiation protein Mcl-1 (Homo sapiens, UniProt Q07820); format: functional
HEK293 [4] = assay: inhibition of NOD1-driven NF-kB reporter – cell-based, luminescence, uHTS, primary screen (AID 1578); format: functional; conditions: Homo sapiens
HEK293 [5] = assay: cells; format: functional, cell-based; conditions: Homo sapiens
HEK293 [6] = assay: cells; format: functional, cell-based; conditions: Homo sapiens; remark: listed apart in the source
[7] = molecular target: Nucleotide-binding oligomerization domain-containing protein 2 (Homo sapiens, UniProt Q9HC29); assay: inhibition of NOD2-driven NF-kB reporter – cell-based, luminescence, uHTS, HEK293 (AID 1566); format: functional
HEK293 [8] = assay: NOD2 signaling inhibitors in MDP-stimulated cells, cell-based, uHTS, luminescence (AID 2001); format: functional; conditions: Homo sapiens
HEK293 [9] = assay: cells; format: functional, cell-based; conditions: Homo sapiens; remark: listed apart in the source
[10] = molecular target: T2, E3 ubiquitin-protein ligase XIAP (Homo sapiens, UniProt P98170); assay: Counter Screen using XIAP-Bir3 for Chemical Antagonists of Bir1/2 domains of IAP-family anti-apoptotic proteins. [Related pubchem assays (depositor defined):AID1018, AID1449, AID1514, AID1638, AID1749, AID1750, AID488957, AID488963]
[11] = molecular target: T2, E3 ubiquitin-protein ligase XIAP; assay: small molecules displacing peptide from XIAP – biochemical, IAP family, fluorescence polarization (AID 1018); format: functional
Vasopressin V1a receptor = Vasopressin V1a receptor (Homo sapiens, UniProt P37288); assay: Counterscreen for Oxytocin Receptor (OXTR) agonists: Fluorescence-based cell-based high throughput dose response assay to identify agonists of the vasopressin 1 receptor (V1R). [Related pubchem assays: 2435 (Primary screen (OXTR agonists in singlicate)), 434991 (Counterscreen (V1R agonists in triplicate)), 2482 (Summary (OXTR agonists)) …; format: functional
Oxytocin receptor = Oxytocin receptor (Homo sapiens, UniProt P30559); assay: Fluorescence-based cell-based high throughput dose response assay for agonists of the Oxytocin Receptor (OXTR). [Related pubchem assays: 2435 (Primary screen (OXTR agonists in singlicate)), 434991 (Counterscreen (V1R agonists in triplicate)), 2482 (Summary (OXTR agonists)), 434963 (Confirmation screen (OXTR agonists in triplicate))]; format: functional
[12] = THP-1 cell cytotoxicity, dose response, cytotoxicity control for non-replicating M. tuberculosis project (AID 489025); format: functional
[13] = HepG2 cell cytotoxicity, dose response, cytotoxicity control for non-replicating M. tuberculosis project (AID 489018); format: functional; conditions: Mycobacterium tuberculosis
[14] = Vero E6 cell cytotoxicity, dose response, cytotoxicity control for non-replicating M. tuberculosis project, secondary assay (AID 492998); format: functional, VeroE6; conditions: Vero C1008
cells = format: functional
Cytochrome P450 2C9 = Cytochrome P450 2C9 (Homo sapiens, UniProt P11712)
[15] = molecular target: Peroxisome proliferator-activated receptor gamma/Nuclear receptor coactivator 1 (Homo sapiens, UniProt P37231); assay: (§1) TR-FRET dose response biochemical High Throughput Screening assay for agonists of the steroid receptor coactivator 1 (SRC-1) recruitment by the peroxisome proliferator-activated receptor gamma (PPAR gamma): non-selective agonists. [Related pubchem assays (depositor defined):AID1300, AID1808, AID504735, AID631]; format: protein assay
[16] = molecular target: Peroxisome proliferator-activated receptor gamma/Nuclear receptor coactivator 3 (Homo sapiens, UniProt P37231); assay: as §1, with “3 (SRC-3)” for “1 (SRC-1)”, “assays: 1301 (Confirmation screen.), 1048 (Primary screen.)]” for “assays (depositor defined):AID1300, AID1808, AID504735, AID631]”; format: functional
[17] = molecular target: Peroxisome proliferator-activated receptor gamma/Nuclear receptor corepressor 2 (Homo sapiens, UniProt P37231+Q9Y618); assay: Counterscreen for NR2E3 inverse agonists: TR-FRET-based biochemical high throughput dose response assay to identify inverse agonists of the interaction between peroxisome proliferator-activated receptor gamma (PPARg) and nuclear receptor co-repressor 2 (NCOR2).; format: functional
[18] = molecular target: Photoreceptor-specific nuclear receptor (Homo sapiens, UniProt Q9Y5X4); assay: ligands suppressing NR2E3 nuclear receptor activity – biochemical, TR-FRET, dose response (AID 463256); format: functional
[19] = molecular target: Peroxisome proliferator-activated receptor gamma/Nuclear receptor coactivator 2 (Homo sapiens, UniProt P37231); assay: TR-FRET dose response biochemical High Throughput Screening assay for agonists of the steroid receptor coactivator 2 (SRC-2) recruitment by the peroxisome proliferator-activated receptor gamma (PPAR gamma): non-selective agonists. [Related pubchem assays: 1297, 1032 ]; format: functional
CHO-K1 = assay: (§2) Counterscreen for antagonists of the orexin 1 receptor (OX1R; HCRTR1): Homogeneous time resolved fluorescence (HTRF)-based cell-based dose response assay to identify antagonists of the parental CHO-K1 cell line. [Related pubchem assays (depositor defined):AID434989, AID435008, AID463079, AID485270, AID492963, AID492964, AID492965, AID493232, AID504699, AID504701]; format: functional; conditions: Cricetulus griseus
[20] = as §2, with “Fluorescence-based” for “Homogeneous time resolved fluorescence (HTRF)-based”, “cell-based high throughput” for “cell-based”, “CHO” for “CHO-K1”; format: functional
[21] = molecular target: T3, Orexin/Hypocretin receptor type 1 (Homo sapiens, UniProt O43613); assay: Homogeneous Time Resolved Fluorescence (HTRF)-based cell-based high throughput dose response assay for antagonists of the orexin 1 receptor (OX1R; HCRTR1). [Related pubchem assays (depositor defined):AID434989, AID435008, AID463079, AID485270, AID492963, AID492964, AID492965, AID493232, AID504717, AID504718]; format: functional
T3 sequence (O43613 whole entry): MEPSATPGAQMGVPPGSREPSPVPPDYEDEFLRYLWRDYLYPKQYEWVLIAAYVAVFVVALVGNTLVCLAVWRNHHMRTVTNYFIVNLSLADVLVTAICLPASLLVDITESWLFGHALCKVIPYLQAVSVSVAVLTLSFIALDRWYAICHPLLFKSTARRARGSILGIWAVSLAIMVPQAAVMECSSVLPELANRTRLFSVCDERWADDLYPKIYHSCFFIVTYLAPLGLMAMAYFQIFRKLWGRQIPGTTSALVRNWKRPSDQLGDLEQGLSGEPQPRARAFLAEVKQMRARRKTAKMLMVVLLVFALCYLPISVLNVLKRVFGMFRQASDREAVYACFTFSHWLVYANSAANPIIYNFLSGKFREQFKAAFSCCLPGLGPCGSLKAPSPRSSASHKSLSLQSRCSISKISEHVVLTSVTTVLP

[22] = molecular target: T3, Orexin/Hypocretin receptor type 1; assay: Fluorescence-based cell-based high throughput dose response assay for antagonists of the orexin 1 receptor (OX1R; HCRTR1). [Related pubchem assays (depositor defined):AID434989, AID435008, AID463079, AID485270, AID492963, AID492964, AID492965, AID493232, AID504717, AID504718]; format: functional
Orexin receptor type 2 [23] = molecular target: T4, Orexin receptor type 2 (Homo sapiens, UniProt O43614); assay: Counterscreen assay for antagonists of the orexin 1 receptor (OX1R; HCRTR1): Fluorescence-based cell-based dose response assay for antagonists of the orexin 2 receptor (OX2R; HCRTR2), run by assay provider.; format: functional
T4 sequence (O43614 whole entry): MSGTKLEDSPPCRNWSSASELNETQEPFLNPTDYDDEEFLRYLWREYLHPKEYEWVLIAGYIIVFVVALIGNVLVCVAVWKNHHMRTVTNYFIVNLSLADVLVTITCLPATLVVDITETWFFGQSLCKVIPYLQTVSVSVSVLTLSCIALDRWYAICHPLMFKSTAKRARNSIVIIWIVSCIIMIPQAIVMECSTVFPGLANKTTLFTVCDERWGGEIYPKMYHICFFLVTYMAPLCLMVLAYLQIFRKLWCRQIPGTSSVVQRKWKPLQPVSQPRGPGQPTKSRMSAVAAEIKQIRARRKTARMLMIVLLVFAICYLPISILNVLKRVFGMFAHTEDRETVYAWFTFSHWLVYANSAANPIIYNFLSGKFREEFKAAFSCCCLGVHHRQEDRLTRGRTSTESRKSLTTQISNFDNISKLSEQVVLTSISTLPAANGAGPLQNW

Orexin receptor type 2 [24] = molecular target: T4, Orexin receptor type 2; assay: Counterscreen assay for antagonists of the orexin 1 receptor (OX1R; HCRTR1): Homogeneous Time Resolved Fluorescence (HTRF)-based cell-based dose response assay for antagonists of the orexin 2 receptor (OX2R; HCRTR2), run by assay provider.; format: functional
CAAX prenyl protease 1 = CAAX prenyl protease 1 (Saccharomyces cerevisiae S288c, UniProt P47154); assay: yeast CAAX protease Ste24 inhibition – biochemical, S. cerevisiae, plate reader, cherry-pick, dose response (AID 488815)
Chain of CAAX prenyl protease 1 (P47154 whole entry): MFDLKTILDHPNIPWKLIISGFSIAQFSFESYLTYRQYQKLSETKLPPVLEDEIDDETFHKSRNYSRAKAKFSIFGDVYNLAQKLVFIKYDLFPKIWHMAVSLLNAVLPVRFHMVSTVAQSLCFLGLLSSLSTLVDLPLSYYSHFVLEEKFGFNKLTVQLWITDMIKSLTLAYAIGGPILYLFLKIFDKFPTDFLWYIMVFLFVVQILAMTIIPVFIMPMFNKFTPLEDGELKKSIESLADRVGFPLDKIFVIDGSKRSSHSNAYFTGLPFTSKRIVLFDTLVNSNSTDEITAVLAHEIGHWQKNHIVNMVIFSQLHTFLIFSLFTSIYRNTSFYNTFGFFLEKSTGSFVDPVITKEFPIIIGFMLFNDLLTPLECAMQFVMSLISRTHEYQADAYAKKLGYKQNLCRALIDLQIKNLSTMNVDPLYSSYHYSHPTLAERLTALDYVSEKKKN

T2 sequence (P98170 whole entry): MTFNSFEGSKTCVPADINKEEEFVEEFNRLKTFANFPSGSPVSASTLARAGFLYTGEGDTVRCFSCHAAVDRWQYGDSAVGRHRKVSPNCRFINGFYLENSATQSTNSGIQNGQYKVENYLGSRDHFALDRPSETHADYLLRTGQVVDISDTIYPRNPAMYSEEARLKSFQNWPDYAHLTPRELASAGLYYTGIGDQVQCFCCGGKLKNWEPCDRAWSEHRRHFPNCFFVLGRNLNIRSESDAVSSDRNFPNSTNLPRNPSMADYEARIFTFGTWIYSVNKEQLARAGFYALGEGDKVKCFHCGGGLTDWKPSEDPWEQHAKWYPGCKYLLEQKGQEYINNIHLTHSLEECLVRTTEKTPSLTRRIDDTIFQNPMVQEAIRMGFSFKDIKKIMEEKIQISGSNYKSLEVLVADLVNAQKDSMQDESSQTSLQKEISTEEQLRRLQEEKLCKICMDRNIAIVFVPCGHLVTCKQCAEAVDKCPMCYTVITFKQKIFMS
T1 sequence (Q9UBE0 whole entry): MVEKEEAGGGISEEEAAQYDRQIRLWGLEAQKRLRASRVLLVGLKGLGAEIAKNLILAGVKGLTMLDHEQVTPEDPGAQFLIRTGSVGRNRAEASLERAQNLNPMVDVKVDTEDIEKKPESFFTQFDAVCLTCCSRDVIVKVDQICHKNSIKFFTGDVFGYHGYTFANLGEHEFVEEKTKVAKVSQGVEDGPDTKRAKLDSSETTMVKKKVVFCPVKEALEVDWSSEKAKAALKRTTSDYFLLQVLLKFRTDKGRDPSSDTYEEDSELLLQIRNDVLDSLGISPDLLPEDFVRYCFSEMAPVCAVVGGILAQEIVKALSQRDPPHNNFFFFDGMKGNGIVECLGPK
T1 sequence (Q9UBT2 whole entry): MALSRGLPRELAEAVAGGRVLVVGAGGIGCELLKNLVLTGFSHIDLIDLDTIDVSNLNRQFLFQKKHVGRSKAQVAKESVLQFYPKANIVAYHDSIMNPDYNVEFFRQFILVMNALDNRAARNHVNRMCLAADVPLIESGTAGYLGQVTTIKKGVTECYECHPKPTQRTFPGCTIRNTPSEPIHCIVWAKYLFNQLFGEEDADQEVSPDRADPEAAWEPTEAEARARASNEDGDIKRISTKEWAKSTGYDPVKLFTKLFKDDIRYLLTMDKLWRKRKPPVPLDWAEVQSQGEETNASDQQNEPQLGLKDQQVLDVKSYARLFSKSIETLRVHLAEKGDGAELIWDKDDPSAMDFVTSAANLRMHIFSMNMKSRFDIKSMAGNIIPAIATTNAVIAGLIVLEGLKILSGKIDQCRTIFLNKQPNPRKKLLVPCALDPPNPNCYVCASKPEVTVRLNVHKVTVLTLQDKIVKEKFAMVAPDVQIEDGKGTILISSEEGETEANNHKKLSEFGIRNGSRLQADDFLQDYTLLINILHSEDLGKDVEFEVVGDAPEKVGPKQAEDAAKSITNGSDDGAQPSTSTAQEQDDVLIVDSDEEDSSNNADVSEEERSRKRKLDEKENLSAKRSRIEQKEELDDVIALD
Chain of Induced myeloid leukemia cell differentiation protein Mcl-1 (Q07820 whole entry): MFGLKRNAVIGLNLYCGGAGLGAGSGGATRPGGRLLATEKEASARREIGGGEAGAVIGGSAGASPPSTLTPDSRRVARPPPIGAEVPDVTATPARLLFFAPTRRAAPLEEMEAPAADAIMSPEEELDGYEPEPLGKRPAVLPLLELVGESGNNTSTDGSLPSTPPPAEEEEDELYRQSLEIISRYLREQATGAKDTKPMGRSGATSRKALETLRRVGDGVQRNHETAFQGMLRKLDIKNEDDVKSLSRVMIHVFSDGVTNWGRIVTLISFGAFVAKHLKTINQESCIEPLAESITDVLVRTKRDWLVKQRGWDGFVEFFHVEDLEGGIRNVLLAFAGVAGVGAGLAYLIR
Chain of Peroxisome proliferator-activated receptor gamma/Nuclear receptor coactivator 2 (P37231 whole entry): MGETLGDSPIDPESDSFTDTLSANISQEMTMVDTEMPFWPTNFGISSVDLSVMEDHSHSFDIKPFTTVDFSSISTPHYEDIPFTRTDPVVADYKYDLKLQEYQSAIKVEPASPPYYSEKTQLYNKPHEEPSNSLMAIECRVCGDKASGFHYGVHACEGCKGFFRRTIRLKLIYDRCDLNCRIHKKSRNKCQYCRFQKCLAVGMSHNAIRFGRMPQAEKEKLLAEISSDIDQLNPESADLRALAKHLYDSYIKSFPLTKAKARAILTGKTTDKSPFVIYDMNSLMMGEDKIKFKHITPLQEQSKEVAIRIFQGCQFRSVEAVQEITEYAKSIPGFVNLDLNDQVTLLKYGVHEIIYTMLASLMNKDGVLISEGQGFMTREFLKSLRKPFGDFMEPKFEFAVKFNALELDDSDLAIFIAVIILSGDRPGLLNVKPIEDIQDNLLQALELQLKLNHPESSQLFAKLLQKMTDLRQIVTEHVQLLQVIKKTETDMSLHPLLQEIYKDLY
Chain of Peroxisome proliferator-activated receptor gamma/Nuclear receptor coactivator 2 (Q15596 whole entry, further chain): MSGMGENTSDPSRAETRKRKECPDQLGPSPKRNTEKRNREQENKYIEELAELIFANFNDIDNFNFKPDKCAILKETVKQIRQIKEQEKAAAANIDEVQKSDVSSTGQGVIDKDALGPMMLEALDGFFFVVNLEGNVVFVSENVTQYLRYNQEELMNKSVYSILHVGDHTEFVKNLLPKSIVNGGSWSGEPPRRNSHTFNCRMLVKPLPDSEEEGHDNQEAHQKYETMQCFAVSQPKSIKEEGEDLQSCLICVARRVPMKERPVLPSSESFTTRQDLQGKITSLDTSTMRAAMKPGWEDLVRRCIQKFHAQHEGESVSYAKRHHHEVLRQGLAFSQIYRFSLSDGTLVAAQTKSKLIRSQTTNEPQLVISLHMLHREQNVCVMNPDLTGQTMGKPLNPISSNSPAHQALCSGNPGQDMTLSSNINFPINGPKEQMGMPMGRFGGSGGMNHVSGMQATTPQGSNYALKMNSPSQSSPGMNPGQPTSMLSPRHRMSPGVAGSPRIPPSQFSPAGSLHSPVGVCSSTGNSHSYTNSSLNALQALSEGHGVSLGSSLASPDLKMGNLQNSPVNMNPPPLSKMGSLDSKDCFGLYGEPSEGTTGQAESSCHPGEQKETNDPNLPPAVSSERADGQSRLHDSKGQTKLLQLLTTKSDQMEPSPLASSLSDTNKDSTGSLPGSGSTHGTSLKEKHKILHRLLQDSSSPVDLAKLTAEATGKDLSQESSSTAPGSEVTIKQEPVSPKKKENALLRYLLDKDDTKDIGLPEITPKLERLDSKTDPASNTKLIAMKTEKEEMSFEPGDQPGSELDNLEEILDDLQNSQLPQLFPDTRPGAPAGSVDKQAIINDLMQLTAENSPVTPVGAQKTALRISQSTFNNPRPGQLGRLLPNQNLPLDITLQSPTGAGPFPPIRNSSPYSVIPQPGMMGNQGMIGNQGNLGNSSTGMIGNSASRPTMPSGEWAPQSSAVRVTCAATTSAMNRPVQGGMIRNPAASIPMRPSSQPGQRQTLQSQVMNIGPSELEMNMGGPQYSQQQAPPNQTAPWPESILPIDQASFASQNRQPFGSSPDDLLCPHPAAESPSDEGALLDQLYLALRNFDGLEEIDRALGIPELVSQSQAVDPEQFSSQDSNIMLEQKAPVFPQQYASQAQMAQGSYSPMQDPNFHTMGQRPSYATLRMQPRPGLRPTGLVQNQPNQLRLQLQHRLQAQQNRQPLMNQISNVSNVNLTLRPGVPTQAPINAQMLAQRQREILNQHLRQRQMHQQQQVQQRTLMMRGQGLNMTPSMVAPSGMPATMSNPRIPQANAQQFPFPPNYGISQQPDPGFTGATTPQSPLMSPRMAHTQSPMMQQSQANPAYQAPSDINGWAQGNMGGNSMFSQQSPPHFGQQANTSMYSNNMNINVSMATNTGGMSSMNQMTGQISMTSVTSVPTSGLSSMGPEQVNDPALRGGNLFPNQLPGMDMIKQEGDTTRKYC
Chain of Photoreceptor-specific nuclear receptor (Q9Y5X4 whole entry): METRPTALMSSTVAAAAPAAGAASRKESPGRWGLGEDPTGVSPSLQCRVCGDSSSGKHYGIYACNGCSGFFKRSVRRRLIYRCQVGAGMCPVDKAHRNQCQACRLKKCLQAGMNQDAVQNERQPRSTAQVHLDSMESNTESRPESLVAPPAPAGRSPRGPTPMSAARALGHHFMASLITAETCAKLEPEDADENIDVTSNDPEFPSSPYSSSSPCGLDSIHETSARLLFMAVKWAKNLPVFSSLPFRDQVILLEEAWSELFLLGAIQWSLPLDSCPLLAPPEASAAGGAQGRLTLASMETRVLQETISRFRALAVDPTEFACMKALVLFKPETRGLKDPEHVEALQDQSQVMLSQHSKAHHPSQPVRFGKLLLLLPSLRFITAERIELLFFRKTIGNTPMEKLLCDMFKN

Compound: COc1ccc(/C=C2/SC(=S)N(c3ccc(S(=O)(=O)Nc4nccs4)cc3)C2=O)cc1
- IC50 (SUMO-activating enzyme [1]): 1.18 µM (active)
- IC50 (SUMO-activating enzyme [2]): 5.9 µM (active)
- IC50 [3]: 1.98 µM (active)

Compound: CCOc1ccccc1C(=O)N1CCN(C(c2ccccc2)c2ccccc2)CC1
- EC50 (HEK293 [4]): 14.3 µM (active)
- IC50 (HEK293 [5]): 15.7 µM (active)
- IC50 (HEK293 [6]): > 20 µM (inactive)
- EC50 [7]: 13 µM (active)
- IC50 (HEK293 [8]): > 20 µM (inactive)
- IC50 (HEK293 [9]): > 20 µM (inactive)

Compound: COc1ccc(CC2(CO)CCN(Cc3cnn(C)c3)CC2)cc1
- IC50 [10]: > 100 µM (inactive)
- IC50 [11]: > 100 µM (not active)

Compound: Clc1ccc2c(c1)C(N1CCNCC1)Cc1ccccc1S2 (stereo not given)
- EC50 (Vasopressin V1a receptor): 21.3 µM (not active)
- EC50 (Oxytocin receptor): > 9.97 µM (active)
- CC50 [12]: 12 µM (active)
- CC50 [13]: 8.65 µM (active)
- CC50 [14]: 11.5 µM (active)
- IC50 (cells): 15.5 µM (active)

Compound: CCOc1ccccc1Oc1coc2cc(OC)ccc2c1=O
- AC50 (Cytochrome P450 2C9): inconclusive

Compound: NS(=O)(=O)c1ccc(CNC(=O)c2cc(-c3ccccn3)nc3ccc(Cl)cc23)cc1
- EC50 [15]: 6.13 µM (active)
- EC50 [16]: 17.6 µM (not active)
- IC50 [17]: > 39.9 µM (not active)
- IC50 [18]: > 4.43 µM (active)
- EC50 [19]: 5.82 µM (active)
- IC50 (CHO-K1): > 66.2 µM (inactive)
- IC50 [20]: > 49.7 µM (inactive)
- IC50 [21]: 2.46 µM (active)
- IC50 [22]: > 49.7 µM (inactive)
- IC50 (Orexin receptor type 2 [23]): 30.1 µM (inactive)
- IC50 (Orexin receptor type 2 [24]): > 50 µM (inactive)

Compound: COc1cc(OC)cc(-c2ncc3ccccn23)c1
- AC50 (CAAX prenyl protease 1): 5.47 µM (active)
